Several values for one entry are separate records, joined by “and”; a condition that tells them apart may be missing. Equal values may be shown once. Toxic doses and inconclusive results are not listed.
System: P388 leukemia ip, CD2F1 mice, survival T/C
Assay: NCI In Vivo Anticancer Drug Screen. Data for tumor model P388 Leukemia (intraperitoneal) in CD2F1 (CDF1) mice
Settings: endpoint: median survival time, higher = longer survival
How it was run: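 Mice carrying the transplanted tumor received test compound or vehicle. Survival was recorded in each group, and the value is the treated-group measurement divided by that of the vehicle-treated control group.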

[1] = dose: 100.0 mg/kg/injection, schedule: Q01DX001 (ip), vehicle: saline with Tween-80
[2] = dose: 200.0 mg/kg/injection, schedule: Q01DX001 (ip), vehicle: saline with Tween-80
[3] = dose: 400.0 mg/kg/injection, schedule: Q01DX001 (ip), vehicle: saline with Tween-80
[4] = dose: 60.0 mg/kg/injection, schedule: Q01DX005 (ip), vehicle: saline with Tween-80
[5] = dose: 120.0 mg/kg/injection, schedule: Q01DX005 (ip), vehicle: saline with Tween-80
[6] = dose: 240.0 mg/kg/injection, schedule: Q01DX005 (ip), vehicle: saline with Tween-80
[7] = dose: 50.0 mg/kg/injection, schedule: Q01DX005 (ip), vehicle: saline with Tween-80
[8] = dose: 100.0 mg/kg/injection, schedule: Q01DX005 (ip), vehicle: saline with Tween-80
[9] = dose: 200.0 mg/kg/injection, schedule: Q01DX005 (ip), vehicle: saline with Tween-80
[10] = dose: 15.0 mg/kg/injection, schedule: Q01DX005 (ip), vehicle: saline with Tween-80
[11] = dose: 50.0 mg/kg/injection, schedule: Q01DX005 (ip), vehicle: Klucel (hydroxypropylcellulose) (HPC)
[12] = dose: 100.0 mg/kg/injection, schedule: Q01DX005 (ip), vehicle: Klucel (hydroxypropylcellulose) (HPC)
[13] = dose: 200.0 mg/kg/injection, schedule: Q01DX005 (ip), vehicle: Klucel (hydroxypropylcellulose) (HPC)
[14] = dose: 100.0 mg/kg/injection, schedule: Q04DX003 (ip), vehicle: Klucel (hydroxypropylcellulose) (HPC)
[15] = dose: 200.0 mg/kg/injection, schedule: Q04DX003 (ip), vehicle: Klucel (hydroxypropylcellulose) (HPC)
[16] = dose: 400.0 mg/kg/injection, schedule: Q04DX003 (ip), vehicle: Klucel (hydroxypropylcellulose) (HPC)
[17] = dose: 60.0 mg/kg/injection, schedule: Q01DX005 (ip), vehicle: Klucel (hydroxypropylcellulose) (HPC)
[18] = dose: 120.0 mg/kg/injection, schedule: Q01DX005 (ip), vehicle: Klucel (hydroxypropylcellulose) (HPC)
[19] = dose: 240.0 mg/kg/injection, schedule: Q01DX005 (ip), vehicle: Klucel (hydroxypropylcellulose) (HPC)

**Q.** How did the T/C (dose: 4.0 mg/kg/injection, schedule: Q01DX009 (ip), vehicle: saline with Tween-80) turn out when `CC(=O)Oc1ccc(/C=N/NC(N)=S)nc1` was run?
**A.** 154 % of control

**Q.** What about the T/C (dose: 14.6 mg/kg/injection, schedule: Q01DX009 (ip), vehicle: saline with Tween-80) of the same molecule?
**A.** 163 % of control

**Q.** What about the T/C (dose: 22.0 mg/kg/injection, schedule: Q01DX009 (ip), vehicle: saline with Tween-80) of the same molecule?
**A.** 177 % of control

**Q.** What about the T/C (dose: 33.0 mg/kg/injection, schedule: Q01DX009 (ip), vehicle: saline with Tween-80) of the same molecule?
**A.** 181 % of control

**Q.** And the T/C (dose: 37.5 mg/kg/injection, schedule: Q01DX009 (ip), vehicle: saline with Tween-80)?
**A.** 170 % of control

**Q.** And the T/C (dose: 50.0 mg/kg/injection, schedule: Q01DX009 (ip), vehicle: saline with Tween-80)?
**A.** 204 % of control

**Q.** What about the T/C (dose: 75.0 mg/kg/injection, schedule: Q01DX009 (ip), vehicle: saline with Tween-80) of the same molecule?
**A.** 173 % of control

**Q.** What about the T/C (dose: 150.0 mg/kg/injection, schedule: Q01DX009 (ip), vehicle: saline with Tween-80) of the same molecule?
**A.** 88 % of control

**Q.** Which results are given for `CCCC(=O)Nc1ccn(C2OC(CO)C(O)C2O)c(=O)n1` (stereo not drawn)?
**A.** T/C (dose: 25.0 mg/kg/injection, schedule: Q01DX009 (ip), vehicle: saline): 99 % of control; T/C (dose: 50.0 mg/kg/injection, schedule: Q01DX009 (ip), vehicle: saline): 96 % of control; T/C (dose: 100.0 mg/kg/injection, schedule: Q01DX009 (ip), vehicle: saline): 94 % of control; T/C (dose: 200.0 mg/kg/injection, schedule: Q01DX009 (ip), vehicle: saline): 96 % of control

**Q.** Which results are given for `NC1=NS(=O)(=O)Nc2nn(-c3ccccc3)nc21`?
**A.** T/C [1]: 107 % of control; T/C [2]: 101 % of control; T/C [3]: 99 % of control

**Q.** For `CC(C)(C)c1cc(/C=N/NC(=O)CC2CCCCC2)cc(C(C)(C)C)c1O`, which T/C [4] is on record?
**A.** 96 % of control

**Q.** And the T/C [5]?
**A.** 100 % of control

**Q.** What about the T/C [6] of the same molecule?
**A.** 87 % of control

**Q.** For `O=C1CC2(CC(=O)NC2=O)C(=O)N1`, which T/C (dose: 100.0 mg/kg/injection, schedule: Q01DX001 (ip), vehicle: saline) is on record?
**A.** 100 % of control

**Q.** What about the T/C (dose: 200.0 mg/kg/injection, schedule: Q01DX001 (ip), vehicle: saline) of the same molecule?
**A.** 97 % of control

**Q.** What about the T/C (dose: 400.0 mg/kg/injection, schedule: Q01DX001 (ip), vehicle: saline) of the same molecule?
**A.** 92 % of control

**Q.** Which results are given for `c1ccc(C[N+]23CCC(CC2)C3c2ccccc2)cc1` (stereo not drawn)?
**A.** T/C (dose: 3.75 mg/kg/injection, schedule: Q01DX005 (ip), vehicle: saline): 103 % of control; T/C (dose: 7.5 mg/kg/injection, schedule: Q01DX005 (ip), vehicle: saline): 103 % of control; T/C (dose: 15.0 mg/kg/injection, schedule: Q01DX005 (ip), vehicle: saline): 104 % of control

**Q.** With `CC(=O)c1ccc2c(c1)c1c(C)c3c[n+](C)ccc3c(C)c1n2C` as the molecule, how does the T/C [2] read?
**A.** 115 % of control

**Q.** How did the T/C [7] turn out when `O=[N+]([O-])c1ccc(SN2CCCCC2)c([N+](=O)[O-])c1` was run?
**A.** 100 % of control

**Q.** And the T/C [8]?
**A.** 100 % of control

**Q.** What about the T/C [9] of the same molecule?
**A.** 105 % of control

**Q.** `CCOC(=O)C(=O)Nc1[nH]c(C)c(C)c1C#N` was tested. Which T/C (dose: 50.0 mg/kg/injection, schedule: Q01DX009 (ip), vehicle: saline + alcohol) did it give?
**A.** 91 % of control

**Q.** What about the T/C (dose: 100.0 mg/kg/injection, schedule: Q01DX009 (ip), vehicle: saline + alcohol) of the same molecule?
**A.** 96 % of control

**Q.** And the T/C (dose: 200.0 mg/kg/injection, schedule: Q01DX009 (ip), vehicle: saline + alcohol)?
**A.** 89 % of control

**Q.** What does the source list for `CC(C)(C)c1cc(C(C)(C)C)c2[n+]([O-])ssc1-2`?
**A.** T/C [10]: 120 % of control; T/C (dose: 30.0 mg/kg/injection, schedule: Q01DX005 (ip), vehicle: saline with Tween-80): 108 % of control; T/C [4]: 113 % of control and 95 % of control; T/C [5]: 97 % of control

**Q.** For `CCC#CCN(CCCC)CCCC`, which T/C [7] is on record?
**A.** 106 % of control

**Q.** What about the T/C [8] of the same molecule?
**A.** 103 % of control

**Q.** For `O=C(Nc1ccc(Cl)cc1)Nc1nnc(-c2cccc(Cl)c2)o1`, which T/C (dose: 7.5 mg/kg/injection, schedule: Q01DX005 (ip), vehicle: saline with Tween-80) is on record?
**A.** 95 % of control

**Q.** What about the T/C [10] of the same molecule?
**A.** 90 % of control and 93 % of control

**Q.** What about the T/C [4] of the same molecule?
**A.** 89 % of control

**Q.** What about the T/C [6] of the same molecule?
**A.** 91 % of control

**Q.** How did the T/C [11] turn out when `N=C(N)c1ccc(N=Nc2cc(N=Nc3ccc(C(=N)N)cc3)c(O)cc2O)cc1` was run?
**A.** 92 % of control

**Q.** What about the T/C [12] of the same molecule?
**A.** 92 % of control

**Q.** What about the T/C [13] of the same molecule?
**A.** 100 % of control

**Q.** Which results are given for `O=c1[nH]cnc2c1nc(Br)n2C1OC(CO)C(O)C1O` (stereo not drawn)?
**A.** T/C (dose: 6.25 mg/kg/injection, schedule: Q01DX009 (ip), vehicle: Klucel (hydroxypropylcellulose) (HPC)): 94 % of control; T/C (dose: 12.5 mg/kg/injection, schedule: Q01DX009 (ip), vehicle: Klucel (hydroxypropylcellulose) (HPC)): 94 % of control; T/C (dose: 25.0 mg/kg/injection, schedule: Q01DX009 (ip), vehicle: Klucel (hydroxypropylcellulose) (HPC)): 94 % of control; T/C (dose: 50.0 mg/kg/injection, schedule: Q01DX009 (ip), vehicle: Klucel (hydroxypropylcellulose) (HPC)): 97 % of control; T/C (dose: 100.0 mg/kg/injection, schedule: Q01DX009 (ip), vehicle: Klucel (hydroxypropylcellulose) (HPC)): 94 % of control

**Q.** For `O=C(O)c1cc2ccccc2c(N=Nc2cc(C(F)(F)F)ccc2Cl)c1O`, which T/C (dose: 12.5 mg/kg/injection, schedule: Q01DX005 (ip), vehicle: saline with Tween-80) is on record?
**A.** 102 % of control

**Q.** And the T/C (dose: 25.0 mg/kg/injection, schedule: Q01DX005 (ip), vehicle: saline with Tween-80)?
**A.** 100 % of control

**Q.** And the T/C [7]?
**A.** 98 % of control and 100 % of control

**Q.** And the T/C [9]?
**A.** 86 % of control

**Q.** `c1ccc(CN2COc3c(ccc4ccccc34)C2)cc1` was tested. Which T/C [14] did it give?
**A.** 97 % of control

**Q.** And the T/C [15]?
**A.** 102 % of control

**Q.** What about the T/C [16] of the same molecule?
**A.** 96 % of control

**Q.** For `N#C/C(=N\Nc1ccccc1Cl)C(=O)C1CC1`, which T/C [17] is on record?
**A.** 100 % of control

**Q.** And the T/C [18]?
**A.** 100 % of control

**Q.** What about the T/C [19] of the same molecule?
**A.** 89 % of control

**Q.** What does the source list for `CCOc1ccc2cc3c(nc2n1)[nH]c1ccccc13`?
**A.** T/C [14]: 103 % of control; T/C [15]: 107 % of control; T/C [16]: 110 % of control

**Q.** Which results are given for `O=C1C=CC(=O)N1CC[P+](c1ccccc1)(c1ccccc1)c1ccccc1`?
**A.** T/C (dose: 0.78 mg/kg/injection, schedule: Q01DX009 (ip), vehicle: water): 118 % of control; T/C (dose: 1.56 mg/kg/injection, schedule: Q01DX009 (ip), vehicle: water): 102 % of control; T/C (dose: 3.13 mg/kg/injection, schedule: Q01DX009 (ip), vehicle: water): 106 % of control; T/C (dose: 6.25 mg/kg/injection, schedule: Q01DX009 (ip), vehicle: water): 105 % of control; T/C (dose: 12.5 mg/kg/injection, schedule: Q01DX009 (ip), vehicle: water): 112 % of control; T/C (dose: 25.0 mg/kg/injection, schedule: Q01DX009 (ip), vehicle: water): 112 % of control and 120 % of control

**Q.** Which results are given for `COC1OC(CO)C2OC12` (stereo not drawn)?
**A.** T/C (dose: 50.0 mg/kg/injection, schedule: Q01DX005 (ip), vehicle: saline): 93 % of control and 103 % of control; T/C (dose: 100.0 mg/kg/injection, schedule: Q01DX005 (ip), vehicle: saline): 94 % of control and 100 % of control; T/C (dose: 200.0 mg/kg/injection, schedule: Q01DX005 (ip), vehicle: saline): 88 % of control and 99 % of control

**Q.** Which results are given for `OC1=CC(=S)NC(c2ccccc2)C1` (stereo not drawn)?
**A.** T/C [11]: 99 % of control; T/C [12]: 106 % of control; T/C [13]: 108 % of control

**Q.** What does the source list for `CC(C)c1nnc2cc3c(cc2c1N)oc1ccccc13`?
**A.** T/C (dose: 100.0 mg/kg/injection, schedule: Q04DX002 (ip), vehicle: saline with Tween-80): 87 % of control; T/C (dose: 200.0 mg/kg/injection, schedule: Q04DX002 (ip), vehicle: saline with Tween-80): 92 % of control; T/C (dose: 400.0 mg/kg/injection, schedule: Q04DX002 (ip), vehicle: saline with Tween-80): 87 % of control

**Q.** For `CCOC(=O)c1c(Cl)c(-c2ccccc2)c(=O)n2c1[nH]c1ccccc12`, which T/C [1] is on record?
**A.** 100 % of control

**Q.** And the T/C [2]?
**A.** 101 % of control

**Q.** And the T/C [3]?
**A.** 102 % of control

**Q.** How did the T/C [17] turn out when `CN(C)C(=O)N1OC(CN)CC1=O` (stereo not drawn) was run?
**A.** 105 % of control

**Q.** And the T/C [18]?
**A.** 104 % of control

**Q.** What about the T/C [19] of the same molecule?
**A.** 105 % of control

From PubChem BioAssay AID330 (DTP/NCI, 2004)
